Results as given in PMC4503722, “Novel Phenotypic Outcomes Identified for a Public Collection of Approved Drugs from a Publicly Accessible Panel of Assays” (PLoS ONE, 2015).
pIC50: −log10 of the molar value. Where two headings read alike, the source gives them in different places.

What was measured:
[1] = system: endothelial tube formation in co-cultures of ECFCs and ADSCs treated with VEGF; assay: cells; format: cell-based, human; conditions: for pIC50: read-out: VEGF_ADSC\ECFC Angio CD31 TubeArea summarized IC50
DLD-1 = assay: cells; format: cell-based; conditions: for pIC50: read-out: Basal_Viability ATP DLD-1 summarized IC50
SW480 = assay: cells; format: cell-based; conditions: for pIC50: read-out: Basal_Viability ATP SW480 summarized IC50
HCT116 = assay: cells; format: cell-based; conditions: for pIC50: read-out: Basal_Viability ATP HCT116 summarized IC50
[2] = system: HCT116 cells treated with a GSK3β inhibitor; assay: cells; format: cell-based; conditions: for pIC50: read-out: GSK3b inh pretreated_Viability ATP HCT116 summarized IC50
Colo320 = assay: cells; format: cell-based; conditions: for pIC50: read-out: Basal_Viability ATP Colo 320 summarized IC50
RKO = assay: cells; format: cell-based; conditions: for pIC50: read-out: Basal_Viability ATP RKO summarized IC50
SNU-C1 = assay: cells; format: cell-based; conditions: for pIC50: read-out: Basal_Viability ATP SNU-C1 summarized IC50
[3] = system: ECFC/ADSC co-culture cell nuclei number; conditions: for pIC50: read-out: VEGF_ADSC\ECFC Angio Hoechst NucArea summarized IC50
HT-29 = assay: cells; format: cell-based; conditions: assay number 28; for pIC50: basal, read-out: Basal_Viability ATP HT-29 summarized IC50
HeLa cells = assay: cells; format: cell-based;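 for Hela CellCycMod PI 4N summarized IC50: value tracks stimulation of 4N DNA content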
[4] = assay number 26, GSK3b inhibitor pretreated

Q: With `Oc1ccc(Cl)cc1Sc1cc(Cl)ccc1O` [NCGC00013679-06] as the compound, how does the pIC50 [1] read?
A: The pIC50 was 5.45.

Q: And the pIC50 (DLD-1)?
A: Its pIC50 is 6.52.

Q: And the pIC50 (SW480)?
A: The pIC50 was 6.24.

Q: What about the pIC50 (HCT116) of the same compound?
A: Its pIC50 is 6.74.

Q: What about the pIC50 [2] of the same compound?
A: The pIC50 was 6.83.

Q: And the pIC50 (Colo320)?
A: Its pIC50 is 7.12.

Q: What about the pIC50 (RKO) of the same compound?
A: The pIC50 was 6.93.

Q: What about the pIC50 (SNU-C1) of the same compound?
A: Its pIC50 is 5.73.

Q: What about the pIC50 [3] of the same compound?
A: Its pIC50 is 5.06.

Q: With `CC(C)(C)NCC(O)c1cc(O)cc(O)c1.CC(C)(C)NCC(O)c1cc(O)cc(O)c1.O=S(=O)(O)O` (centres unmarked) [NCGC00016010-09] as the compound, how does the “Basal_Viability ATP DLD-1 IC50/EC50” value (DLD-1; assay number 23) read?
A: The value was over 20 µM.

Q: And the “Basal_Viability ATP SW480 IC50/EC50” value (SW480; assay number 24)?
A: Its value is over 20 µM.

Q: And the “Basal_Viability ATP HCT116 IC50/EC50” value (HCT116; assay number 25, basal)?
A: The value was over 20 µM.

Q: What about the “Basal_Viability ATP Colo 320 IC50/EC50” value (Colo320; assay number 27) of the same compound?
A: The value was over 20 µM.

Q: And the “Basal_Viability ATP HT-29 IC50/EC50” value (HT-29)?
A: The value was over 20 µM.

Q: What about the “Basal_Viability ATP RKO IC50/EC50” value (RKO; assay number 29) of the same compound?
A: Its value is over 20 µM.

Q: With `C=C(CC)C(=O)c1ccc(OCC(=O)O)c(Cl)c1Cl` [NCGC00016260-13] as the compound, how does the pIC50 (DLD-1) read?
A: The pIC50 was 4.93.

Q: And the pIC50 (SW480)?
A: Its pIC50 is under 5.18.

Q: And the pIC50 (HCT116)?
A: Its pIC50 is under 4.70.

Q: What about the pIC50 [2] of the same compound?
A: The pIC50 was 4.91.

Q: And the pIC50 (Colo320)?
A: Its pIC50 is under 4.70.

Q: And the pIC50 (RKO)?
A: Its pIC50 is under 5.18.

Q: What about the pIC50 (SNU-C1) of the same compound?
A: Its pIC50 is under 4.70.

Q: What does the source list for `COc1ccc(C(=O)c2ccccc2O)c(O)c1` [NCGC00016393-07]?
A: pIC50 (DLD-1; assay number 23, basal): < 4.70; pIC50 (SW480; assay number 24, basal): < 4.70; pIC50 (HCT116; assay number 25, basal): < 4.70; pIC50 (Colo320; assay number 27, basal): < 4.70; pIC50 (HT-29): < 4.70; pIC50 (RKO; assay number 29, basal): < 4.70

Q: Which results are given for `CN(Cc1cnc2nc(N)nc(N)c2n1)c1ccc(C(=O)N[C@@H](CCC(=O)O)C(=O)O)cc1` [NCGC00025060-15]?
A: pIC50 [1]: < 5.00; pIC50 (HeLa cells; assay number 14, 2N, read-out: Hela CellCycMod PI 2N summarized IC50): < 5.00; pIC50 (HeLa cells; assay number 15, S phase, read-out: Hela CellCycMod PI S Phase summarized IC50): < 5.00; pIC50 (HeLa cells; assay number 16, 4N, read-out: Hela CellCycMod PI 4N summarized IC50): < 5.00; pIC50 (HeLa cells; assay number 17, MI, read-out: Hela CellCycMod PI MI summarized IC50): < 5.00; pIC50 (HeLa cells; assay number 18, cell number, read-out: Hela CellCycMod PI Cell Number summarized IC50): < 5.00; pIC50 (SNU-C1; assay number 30, basal): < 4.70; pIC50 [3]: < 5.00

Q: With `Oc1ccc(Cl)cc1Cc1ccccc1` [NCGC00091532-06] as the compound, how does the pIC50 (SW480; assay number 24, basal) read?
A: The pIC50 was under 4.70.

Q: And the pIC50 (HCT116; assay number 25, basal)?
A: The pIC50 was under 4.70.

Q: What about the pIC50 [2, 4] of the same compound?
A: The pIC50 was under 5.18.

Q: What about the pIC50 (Colo320; assay number 27, basal) of the same compound?
A: Its pIC50 is 4.89.

Q: What about the pIC50 (HT-29) of the same compound?
A: The pIC50 was under 4.70.

Q: And the pIC50 (RKO; assay number 29, basal)?
A: Its pIC50 is under 4.70.

Q: Which “VEGF_ADSC\ECFC Angio CD31 TubeArea IC50/EC50” value [1] does the source give for `O=C(OCc1ccccc1)c1cccnc1` [NCGC00166105-04] here?
A: The value was over 10 µM.

Q: And the “Basal_Viability ATP DLD-1 IC50/EC50” value (DLD-1; assay number 23, concentration response)?
A: Its value is over 20 µM.

Q: What about the “Basal_Viability ATP HCT116 IC50/EC50” value (HCT116; assay number 25, basal, concentration response) of the same compound?
A: Its value is over 20 µM.

Q: What about the “GSK3b inh pretreated_Viability ATP HCT116 IC50/EC50” value ([2]; assay number 26, GSK3b inhibitor pretreated, concentration response) of the same compound?
A: Its value is over 20 µM.

Q: What about the “Basal_Viability ATP Colo 320 IC50/EC50” value (Colo320; assay number 27, concentration response) of the same compound?
A: Its value is over 20 µM.

Q: What about the “Basal_Viability ATP RKO IC50/EC50” value (RKO; assay number 29, concentration response) of the same compound?
A: The value was over 20 µM.

Q: What about the “Basal_Viability ATP SNU-C1 IC50/EC50” value (SNU-C1; assay number 30, concentration response) of the same compound?
A: Its value is over 20 µM.

Q: And the “VEGF_ADSC\ECFC Angio Hoechst NucArea IC50/EC50” value [3]?
A: The value was over 10 µM.

Q: With `CCOP(=S)(OCC)SCSc1ccc(Cl)cc1` [NCGC00166170-02] as the compound, how does the pIC50 [1] read?
A: Its pIC50 is under 5.00.

Q: And the pIC50 (DLD-1; assay number 23, basal)?
A: Its pIC50 is under 4.70.

Q: And the pIC50 (SW480; assay number 24, basal)?
A: The pIC50 was under 4.70.

Q: And the pIC50 [2, 4]?
A: The pIC50 was under 4.70.

Q: What about the pIC50 (Colo320; assay number 27, basal) of the same compound?
A: Its pIC50 is under 4.70.

Q: And the pIC50 (RKO; assay number 29, basal)?
A: Its pIC50 is under 4.70.

Q: And the pIC50 (SNU-C1; assay number 30, basal)?
A: Its pIC50 is under 4.70.

Q: And the pIC50 [3]?
A: Its pIC50 is under 5.00.

Q: For `C[S+](CC[C@H](N)C(=O)O)C[C@H]1O[C@@H](n2cnc3c(N)ncnc32)[C@H](O)[C@@H]1O` (some centres unmarked) [NCGC00167546-03], which “VEGF_ADSC\ECFC Angio CD31 TubeArea IC50/EC50” value [1] is on record?
A: Its value is over 10 µM.

Q: And the “Basal_Viability ATP DLD-1 IC50/EC50” value (DLD-1; assay number 23, basal)?
A: Its value is over 20 µM.

Q: And the “Basal_Viability ATP SW480 IC50/EC50” value (SW480; assay number 24, basal)?
A: Its value is over 20 µM.

Q: What about the “Basal_Viability ATP HCT116 IC50/EC50” value (HCT116; assay number 25, basal) of the same compound?
A: Its value is over 20 µM.

Q: And the “GSK3b inh pretreated_Viability ATP HCT116 IC50/EC50” value [2, 4]?
A: The value was over 20 µM.

Q: What about the “Basal_Viability ATP Colo 320 IC50/EC50” value (Colo320; assay number 27, basal) of the same compound?
A: Its value is over 20 µM.

Q: What about the “Basal_Viability ATP RKO IC50/EC50” value (RKO; assay number 29, basal) of the same compound?
A: The value was over 20 µM.

Q: And the “Basal_Viability ATP SNU-C1 IC50/EC50” value (SNU-C1; assay number 30, basal)?
A: The value was over 20 µM.

Q: What about the “VEGF_ADSC\ECFC Angio Hoechst NucArea IC50/EC50” value [3] of the same compound?
A: Its value is over 10 µM.

Q: What does the source list for `Cc1ccc(Nc2nccc(N(C)c3ccc4c(C)n(C)nc4c3)n2)cc1S(N)(=O)=O` [NCGC00188865-03]?
A: VEGF_ADSC\ECFC Angio CD31 TubeArea IC50/EC50 [1]: 0.0465 µM; Hela CellCycMod PI 2N IC50/EC50 (HeLa cells; assay number 14, 2N): > 10 µM; Hela CellCycMod PI S Phase IC50/EC50 (HeLa cells; assay number 15, S phase): > 10 µM; Hela CellCycMod PI 4N IC50/EC50 (HeLa cells; assay number 16, 4N): > 10 µM; Hela CellCycMod PI MI IC50/EC50 (HeLa cells; assay number 17, MI): > 10 µM; Hela CellCycMod PI Cell Number IC50/EC50 (HeLa cells; assay number 18, cell number): > 10 µM; VEGF_ADSC\ECFC Angio Hoechst NucArea IC50/EC50 [3]: > 10 µM
